Reference: patent US10160755B2 (Plexxikon Inc., priority 2015, dated 2018)

Columns and labels:
FLT3-ITD = target: T1, FLT3-ITD (Homo sapiens, UniProt P36888); assay: FLT3-ITD biochemical kinase assay (AlphaScreen)
T1 construct: FLT3-ITD; Invitrogen #PV6190
T1 sequence (P36888 1-993): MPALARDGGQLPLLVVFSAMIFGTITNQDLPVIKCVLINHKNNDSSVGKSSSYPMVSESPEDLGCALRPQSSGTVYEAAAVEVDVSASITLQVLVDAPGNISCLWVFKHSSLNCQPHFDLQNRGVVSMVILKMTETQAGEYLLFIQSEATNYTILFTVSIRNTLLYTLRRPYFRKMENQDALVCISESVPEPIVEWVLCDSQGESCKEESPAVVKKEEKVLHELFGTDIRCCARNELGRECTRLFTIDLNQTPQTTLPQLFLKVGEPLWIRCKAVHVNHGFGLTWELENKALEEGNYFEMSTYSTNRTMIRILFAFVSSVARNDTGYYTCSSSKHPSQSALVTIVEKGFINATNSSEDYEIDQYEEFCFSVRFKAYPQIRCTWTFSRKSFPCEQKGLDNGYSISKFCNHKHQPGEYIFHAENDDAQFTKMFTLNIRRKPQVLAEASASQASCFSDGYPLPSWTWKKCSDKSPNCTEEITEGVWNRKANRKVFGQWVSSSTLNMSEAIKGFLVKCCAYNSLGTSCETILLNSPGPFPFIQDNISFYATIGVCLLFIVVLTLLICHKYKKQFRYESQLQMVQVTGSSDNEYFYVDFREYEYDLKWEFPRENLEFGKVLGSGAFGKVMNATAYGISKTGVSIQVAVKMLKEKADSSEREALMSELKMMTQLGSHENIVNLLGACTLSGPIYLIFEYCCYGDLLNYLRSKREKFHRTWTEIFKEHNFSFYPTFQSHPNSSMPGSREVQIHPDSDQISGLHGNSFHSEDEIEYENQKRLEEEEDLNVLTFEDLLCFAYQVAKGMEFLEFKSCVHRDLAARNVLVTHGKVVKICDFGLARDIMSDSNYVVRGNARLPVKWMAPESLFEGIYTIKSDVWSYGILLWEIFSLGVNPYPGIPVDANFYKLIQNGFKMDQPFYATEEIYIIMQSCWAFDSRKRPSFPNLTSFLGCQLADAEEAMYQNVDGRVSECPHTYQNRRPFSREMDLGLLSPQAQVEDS
Outline: (§1)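 Recombinant enzyme phosphorylated biotin-poly(Glu4-Tyr) peptide (30 nM final); ATP final 10 μM for FLT3-D835Y, 100 μM for FLT3-ITD. AlphaScreen read-out: streptavidin donor and anti-phosphotyrosine (PY20) acceptor beads, 20 and 60 min at room temperature; inhibition seen as drop in 580 nm proximity signal; IC50 determined.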

FLT3-D835Y = target: T2, FLT3-D835Y (Homo sapiens, UniProt P36888, D835Y); assay: FLT3-D835Y biochemical kinase assay (AlphaScreen)
T2 construct: purchased Invitrogen PV3967
T2 sequence (P36888 27-993 D835Y): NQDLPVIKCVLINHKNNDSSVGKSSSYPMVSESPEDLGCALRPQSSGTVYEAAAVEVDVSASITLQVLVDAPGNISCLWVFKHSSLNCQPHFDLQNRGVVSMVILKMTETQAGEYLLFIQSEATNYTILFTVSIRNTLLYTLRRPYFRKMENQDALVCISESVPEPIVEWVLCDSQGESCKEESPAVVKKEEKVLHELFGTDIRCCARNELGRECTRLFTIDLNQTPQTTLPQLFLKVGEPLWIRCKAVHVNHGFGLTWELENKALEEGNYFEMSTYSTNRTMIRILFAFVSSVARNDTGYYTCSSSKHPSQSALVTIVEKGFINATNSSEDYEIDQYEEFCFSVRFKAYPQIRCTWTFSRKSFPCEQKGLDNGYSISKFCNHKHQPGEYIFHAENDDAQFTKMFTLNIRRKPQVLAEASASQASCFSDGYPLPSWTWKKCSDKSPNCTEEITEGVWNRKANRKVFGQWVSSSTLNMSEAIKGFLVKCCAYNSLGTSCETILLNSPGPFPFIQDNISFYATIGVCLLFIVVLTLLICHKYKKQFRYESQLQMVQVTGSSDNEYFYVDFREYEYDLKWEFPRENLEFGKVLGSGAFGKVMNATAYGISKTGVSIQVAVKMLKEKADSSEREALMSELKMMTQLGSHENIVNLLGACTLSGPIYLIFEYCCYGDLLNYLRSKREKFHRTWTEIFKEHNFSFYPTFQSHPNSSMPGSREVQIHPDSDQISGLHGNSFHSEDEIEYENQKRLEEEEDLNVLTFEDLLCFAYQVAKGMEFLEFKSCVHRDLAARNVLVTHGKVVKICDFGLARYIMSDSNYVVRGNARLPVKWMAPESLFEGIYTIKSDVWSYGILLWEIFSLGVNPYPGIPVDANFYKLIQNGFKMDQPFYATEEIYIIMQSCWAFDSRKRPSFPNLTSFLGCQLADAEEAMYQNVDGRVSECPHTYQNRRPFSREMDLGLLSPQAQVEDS
Outline: as §1

SMILES	IC50 (FLT3-ITD)	IC50 (FLT3-D835Y)
CN(c1cccc(-c2cnc3[nH]cc(-c4ccc5ncn(C)c5c4)c3c2)c1)S(C)(=O)=O [P-120, N-methyl-N-[3-[3-(3-methylbenzimidazol-5-yl)-1H-pyrrolo[2,3-b]pyridin-5-yl]phenyl]methanesulfonamide]	0.0001 to 1 µM	0.0001 to 1 µM
CC(C)(C)n1cnc2ccc(-c3c[nH]c4ncc(C#Cc5cccc(OC(F)(F)F)c5)nc34)cc21 [P-249, 7-(3-tert-butylbenzimidazol-5-yl)-2-[2-[3-(trifluoromethoxy)phenyl]ethynyl]-5H-pyrrolo[2,3-b]pyrazine]	0.0001 to 1 µM	0.0001 to 1 µM
COc1cc(-c2cnc3[nH]cc(-c4ccc5ncn(C(C)(C)C)c5c4)c3n2)ccn1 [P-099, 7-(3-tert-butylbenzimidazol-5-yl)-2-(2-methoxy-4-pyridyl)-5H-pyrrolo[2,3-b]pyrazine]	0.0001 to 1 µM	0.0001 to 1 µM
CC(C)(C)n1cnc2ccc(-c3c[nH]c4ncc(C(=O)Nc5cccc(C#N)c5)cc34)cc21 [P-218, 3-(3-tert-butylbenzimidazol-5-yl)-N-(3-cyanophenyl)-1H-pyrrolo[2,3-b]pyridine-5-carboxamide]	0.0001 to 1 µM	0.0001 to 1 µM
COc1cnc2[nH]cc(-c3ccc4ncn(-c5cccc(F)c5)c4c3)c2c1 [P-128, 1-(3-fluorophenyl)-6-(5-methoxy-1H-pyrrolo[2,3-b]pyridin-3-yl)benzimidazole]	0.0001 to 1 µM	0.0001 to 1 µM
FC(F)(F)Oc1cccc(-c2cnc3[nH]cc(-c4ccc5ncn(C6CCCNC6)c5c4)c3n2)c1 (stereo not drawn) [P-193, 7-[3-(3-piperidyl)benzimidazol-5-yl]-2-[3-(trifluoromethoxy)phenyl]-5H-pyrrolo[2,3-b]pyrazine]	0.0001 to 1 µM	0.0001 to 1 µM
N#Cc1cccc(C(=O)Nc2cnc3[nH]cc(-c4ccc5ncn(C6CCCNC6)c5c4)c3c2)c1 (stereo not drawn) [P-236, 3-cyano-N-[3-[3-(3-piperidyl)benzimidazol-5-yl]-1H-pyrrolo[2,3-b]pyridin-5-yl]benzamide]	0.0001 to 1 µM	0.0001 to 1 µM
c1cc(-c2cnc3[nH]cc(-c4ccc5ncn(C6CCCNC6)c5c4)c3n2)cc(N2CCOCC2)n1 (stereo not drawn) [P-262, 4-[4-[7-[3-(3-piperidyl)benzimidazol-5-yl]-5H-pyrrolo[2,3-b]pyrazin-2-yl]-2-pyridyl]morpholine]	0.0001 to 1 µM	0.0001 to 1 µM
C#Cc1cnc2[nH]cc(-c3ccc4ncn(C5CCCNC5)c4c3)c2n1 (stereo not drawn) [P-270, 2-ethynyl-7-[3-(3-piperidyl)benzimidazol-5-yl]-5H-pyrrolo[2,3-b]pyrazine]	0.0001 to 1 µM	0.0001 to 1 µM
N#Cc1cccc(NC(=O)c2cnc3[nH]cc(-c4ccc5ncn(C6CCCNC6)c5c4)c3c2)c1 (stereo not drawn) [P-219, N-(3-cyanophenyl)-3-(1-(piperidin-3-yl)-1H-benzo[d]imidazol-6-yl)-1H-pyrrolo[2,3-b]pyridine-5-carboxamide]	0.0001 to 1 µM	0.0001 to 1 µM
CN(c1cccc(-c2cnc3[nH]cc(-c4ccc5ncn(C)c5c4)c3n2)c1)S(C)(=O)=O [P-150, N-methyl-N-[3-[7-(3-methylbenzimidazol-5-yl)-5H-pyrrolo[2,3-b]pyrazin-2-yl]phenyl]methanesulfonamide]	0.0001 to 1 µM	0.0001 to 1 µM
COc1cnc2[nH]cc(-c3ccc4ncn(-c5ccc(F)cc5)c4c3)c2c1 [P-103, 1-(4-fluorophenyl)-6-(5-methoxy-1H-pyrrolo[2,3-b]pyridin-3-yl)benzimidazole]	0.0001 to 1 µM	0.0001 to 1 µM
COc1ncc(-c2cnc3[nH]cc(-c4ccc5ncn(C(C)(C)C)c5c4)c3n2)cn1 [P-263, 7-(3-tert-butylbenzimidazol-5-yl)-2-(2-methoxypyrimidin-5-yl)-5H-pyrrolo[2,3-b]pyrazine]	0.0001 to 1 µM	0.0001 to 1 µM
CC(C)(C)n1cnc2ccc(-c3c[nH]c4ncc(-c5cccc(N6CCOCC6)c5)nc34)cc21 [P-226, 4-[3-[7-(3-tert-butylbenzimidazol-5-yl)-5H-pyrrolo[2,3-b]pyrazin-2-yl]phenyl]morpholine]	0.0001 to 1 µM	0.0001 to 1 µM
CC(C)(C)n1cnc2ccc(-c3c[nH]c4ncc(-c5cccc(S(=O)(=O)N6CCCC6)c5)nc34)cc21 [P-229, 7-(3-tert-butylbenzimidazol-5-yl)-2-(3-pyrrolidin-1-ylsulfonylphenyl)-5H-pyrrolo[2,3-b]pyrazine]	0.0001 to 1 µM	0.0001 to 1 µM
CCCS(=O)(=O)Nc1cccc(-c2cnc3[nH]cc(-c4ccc5ncn(C(C)(C)C)c5c4)c3n2)c1 [P-225, N-[3-[7-(3-tert-butylbenzimidazol-5-yl)-5H-pyrrolo[2,3-b]pyrazin-2-yl]phenyl]propane-1-sulfonamide]	0.0001 to 1 µM	0.0001 to 1 µM
CC(C)(C)n1cnc2ccc(-c3c[nH]c4ncc(-c5cccc(N6CCCCS6(=O)=O)c5)cc34)cc21 [P-221, 2-[3-[3-(3-tert-butylbenzimidazol-5-yl)-1H-pyrrolo[2,3-b]pyridin-5-yl]phenyl]thiazinane 1,1-dioxide]	0.0001 to 1 µM	0.0001 to 1 µM
N#Cc1cc(-c2cnc3[nH]cc(-c4ccc5ncn(C6CCCNC6)c5c4)c3n2)ccc1F (stereo not drawn) [P-238, 2-fluoro-5-[7-[3-(3-piperidyl)benzimidazol-5-yl]-5H-pyrrolo[2,3-b]pyrazin-2-yl]benzonitrile]	0.0001 to 1 µM	0.0001 to 1 µM
FC(F)n1cc(-c2cnc3[nH]cc(-c4ccc5ncn(C6CCCNC6)c5c4)c3n2)cn1 (stereo not drawn) [P-257, 2-[1-(difluoromethyl)pyrazol-4-yl]-7-[3-(3-piperidyl)benzimidazol-5-yl]-5H-pyrrolo[2,3-b]pyrazine]	0.0001 to 1 µM	0.0001 to 1 µM
CC(C)n1cnc2ccc(-c3c[nH]c4ncc(-c5cnn(CC(F)(F)F)c5)cc34)cc21 [P-268, 1-isopropyl-6-[5-[1-(2,2,2-trifluoroethyl)pyrazol-4-yl]-1H-pyrrolo[2,3-b]pyridin-3-yl]benzimidazole]	0.0001 to 1 µM	0.0001 to 1 µM
CC(C)(CO)n1cnc2ccc(-c3c[nH]c4ncc(-c5cccc(NS(C)(=O)=O)c5)nc34)cc21 [P-115, N-[3-[7-[3-(2-hydroxy-1,1-dimethyl-ethyl)benzimidazol-5-yl]-5H-pyrrolo[2,3-b]pyrazin-2-yl]phenyl]methanesulfonamide]	0.0001 to 1 µM	0.0001 to 1 µM
COc1cc(-c2cnc3[nH]cc(-c4ccc5ncn(C(C)C)c5c4)c3n2)ccn1 [P-113, 7-(3-isopropylbenzimidazol-5-yl)-2-(2-methoxy-4-pyridyl)-5H-pyrrolo[2,3-b]pyrazine]	0.0001 to 1 µM	0.0001 to 1 µM
COc1cc(-c2cnc3[nH]nc(-c4ccc5ncn(C(C)(C)C)c5c4)c3c2)ccn1 [P-272, 3-(1-(tert-butyl)-1H-benzo[d]imidazol-6-yl)-5-(2-methoxypyridin-4-yl)-1H-pyrazolo[3,4-b]pyridine]	0.0001 to 1 µM	0.0001 to 1 µM
N#Cc1cccc(C#Cc2cnc3[nH]cc(-c4ccc5ncn(C6CCCNC6)c5c4)c3c2)c1 (stereo not drawn) [P-243, 3-[2-[3-[3-(3-piperidyl)benzimidazol-5-yl]-1H-pyrrolo[2,3-b]pyridin-5-yl]ethynyl]benzonitrile]	0.0001 to 1 µM	0.0001 to 1 µM
